Assays:
Assay type in all cases: in vivo
Scirpus juncoides = assay: Test Example 1: herbicidal activity, application before weed generation in submerged conditions (symbol B); conditions: application herbicide amount 320 g/ha
Summary of the method: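 Application before weed emergence: an aqueous dilution of the emulsion formulation was poured onto the surface of 4 cm-deep floodwater on the day of sowing. Effect was judged after 3 weeks (greenhouse, 25–30 °C).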

[1] = system: Echinochloa crus-galli var. crus-galli; assay: Test Example 3: herbicidal effect by foliage application, Wagner pot (symbol H); conditions: application herbicide amount 320 g/ha
Summary of the method: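 Weeds and rice were sown in alluvial soil under 0.1–0.5 cm of standing water and grown for 14 days in a 25–30 °C greenhouse. An emulsion of the compound, diluted in water to a set dose, was sprayed evenly onto the foliage. Effect was scored against fixed criteria 3 weeks after treatment.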

Setaria viridis = assay: Test Example 4: herbicidal effect by soil treatment (symbol G); conditions: application herbicide amount 320 g/ha
Summary of the method: (§1)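 Seeds were sown in sterilized diluvial soil, covered with about 1.5 cm of soil, and the soil surface was sprayed with a water-diluted emulsion of the compound at a predetermined rate. Plants grew in a greenhouse at 25° C. to 30° C.; effects were scored visually 3 weeks after application.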

[2] = system: Echinochloa crus-galli var. crus-galli; assay: Test Example 4: herbicidal effect by soil treatment (symbol H); conditions: application herbicide amount 320 g/ha
Summary of the method: as §1

Alopecurus myosuroides = assay: Test Example 4: herbicidal effect by soil treatment (symbol J); conditions: application herbicide amount 320 g/ha
Summary of the method: as §1

Lolium multiflorum Lam. = assay: Test Example 4: herbicidal effect by soil treatment (symbol K); conditions: application herbicide amount 320 g/ha
Summary of the method: as §1

corn [3] = assay: Test Example 4: effect on crop by soil treatment (symbol c); conditions: application herbicide amount 320 g/ha
Summary of the method: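 Plants are raised in a greenhouse (25° C. to 30° C.) from spot-sown seed, which sits under about 1.5 cm of sterilized diluvial soil in a box shared with weed species.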

rice = assay: Test Example 4: effect on crop by soil treatment (symbol b); conditions: application herbicide amount 320 g/ha
Summary of the method: (§2)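 Diluvial soil (sterilized) in boxes; seeds placed spot-wise alongside weed species; ~1.5 cm covering soil. Greenhouse, 25–30° C.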

wheat [4] = assay: Test Example 4: effect on crop by soil treatment (symbol e); conditions: application herbicide amount 320 g/ha
Summary of the method: as §2

Digitaria ciliaris = assay: Test Example 5: herbicidal effect by foliage application, plastic box (symbol F); conditions: 320 g/ha, 3 weeks after application
Summary of the method: (§3)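 Herbicide, formulated as an emulsion and diluted in water, is sprayed onto the aerial parts of 14-day seedlings. These were grown at 25° C. to 30° C. in sterilized diluvial soil; effects are graded after 3 weeks.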

Apera spica-venti = assay: Test Example 5: herbicidal effect by foliage application, plastic box (symbol L); conditions: 320 g/ha, 3 weeks after application
Summary of the method: as §3

Veronica persica = assay: Test Example 5: herbicidal effect by foliage application, plastic box (symbol R); conditions: 320 g/ha, 3 weeks after application
Summary of the method: as §3

corn [5] = assay: Test Example 5: effect on crop by foliage application, plastic box (symbol c); conditions: 320 g/ha, 3 weeks after application
Summary of the method: (§4)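 Seeds were sown in spots in sterilized diluvial soil held in a plastic box 21 cm × 13 cm × 7 cm deep, covered with about 1.5 cm of soil, and grown in a greenhouse at 25° C. to 30° C.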

soybean = assay: Test Example 5: effect on crop by foliage application, plastic box (symbol d); conditions: 320 g/ha, 3 weeks after application
Summary of the method: as §4

wheat [6] = assay: Test Example 5: effect on crop by foliage application, plastic box (symbol e); conditions: 320 g/ha, 3 weeks after application
Summary of the method: as §4

rapeseed = assay: Test Example 5: effect on crop by foliage application, plastic box (symbol g); conditions: 320 g/ha, 3 weeks after application
Summary of the method: as §4

SMILES	Herbicidal effect grade, B: Scirpus juncoides (Scirpus juncoides)	herbicidal effect on H (Echinochloa crus-galli var. crus-galli), grade 0-5 [1]	G (Setaria viridis) herbicidal effect grade (Setaria viridis)	H (Echinochloa crus-galli var. crus-galli) herbicidal effect grade [2]	J (Alopecurus myosuroides) herbicidal effect grade (Alopecurus myosuroides)	K (Lolium multiflorum Lam.) herbicidal effect grade (Lolium multiflorum Lam.)	c (corn) effect on crop grade (corn [3])	b (directly sowed rice plant) effect on crop grade (rice)	e (wheat) effect on crop grade (wheat [4])	F: Digitaria ciliaris, herbicidal effect grade (Digitaria ciliaris)	L: Apera spica-venti, herbicidal effect grade (Apera spica-venti)	R: Veronica persica, herbicidal effect grade (Veronica persica)	c: corn, effect on crop grade (corn [5])	d: soybean, effect on crop grade (soybean)	e: wheat, effect on crop grade (wheat [6])	g: rapeseed, effect on crop grade (rapeseed)
COCC(CC1CC(O)=C(c2c(C)cc(C)cc2C)C1=O)=NOC (centres unmarked) [1-040]	2 (Herbicidal ratio of 20% or higher and lower than 40%)	5 (Herbicidal ratio of 90% or more (almost completely withered))	4 (Herbicidal ratio of 70% or higher and lower than 90%)	5 (Herbicidal ratio of 90% or more (almost completely withered))	4 (Herbicidal ratio of 70% or higher and lower than 90%)	4 (Herbicidal ratio of 70% or higher and lower than 90%)	0 (Herbicidal ratio of 5% or lower (almost no effect))	5 (Herbicidal ratio of 90% or more (almost completely withered))	0 (Herbicidal ratio of 5% or lower (almost no effect))	4 (Herbicidal ratio of 70% or higher and lower than 90%)	5 (Herbicidal ratio of 90% or more (almost completely withered))	0 (Herbicidal ratio of 5% or lower (almost no effect))	3 (Herbicidal ratio of 40% or higher and lower than 70%)	0 (Herbicidal ratio of 5% or lower (almost no effect))	0 (Herbicidal ratio of 5% or lower (almost no effect))	4 (Herbicidal ratio of 70% or higher and lower than 90%)
CON=C(CC1CC(O)=C(c2c(C)cc(C)cc2C)C1=O)C1CC1 (centres unmarked) [1-046]	5 (Herbicidal ratio of 90% or more (almost completely withered))	5 (Herbicidal ratio of 90% or more (almost completely withered))	4 (Herbicidal ratio of 70% or higher and lower than 90%)	5 (Herbicidal ratio of 90% or more (almost completely withered))	5 (Herbicidal ratio of 90% or more (almost completely withered))	5 (Herbicidal ratio of 90% or more (almost completely withered))	4 (Herbicidal ratio of 70% or higher and lower than 90%)	5 (Herbicidal ratio of 90% or more (almost completely withered))	4 (Herbicidal ratio of 70% or higher and lower than 90%)	4 (Herbicidal ratio of 70% or higher and lower than 90%)	5 (Herbicidal ratio of 90% or more (almost completely withered))	4 (Herbicidal ratio of 70% or higher and lower than 90%)	5 (Herbicidal ratio of 90% or more (almost completely withered))	3 (Herbicidal ratio of 40% or higher and lower than 70%)	4 (Herbicidal ratio of 70% or higher and lower than 90%)	4 (Herbicidal ratio of 70% or higher and lower than 90%)
CC(CC1CC(O)=C(c2c(C)cc(C)cc2C)C1=O)=NOCC(C)O (centres unmarked) [1-027]	3 (Herbicidal ratio of 40% or higher and lower than 70%)	5 (Herbicidal ratio of 90% or more (almost completely withered))	3 (Herbicidal ratio of 40% or higher and lower than 70%)	5 (Herbicidal ratio of 90% or more (almost completely withered))	5 (Herbicidal ratio of 90% or more (almost completely withered))	5 (Herbicidal ratio of 90% or more (almost completely withered))	4 (Herbicidal ratio of 70% or higher and lower than 90%)	5 (Herbicidal ratio of 90% or more (almost completely withered))	3 (Herbicidal ratio of 40% or higher and lower than 70%)	5 (Herbicidal ratio of 90% or more (almost completely withered))	5 (Herbicidal ratio of 90% or more (almost completely withered))	–	5 (Herbicidal ratio of 90% or more (almost completely withered))	3 (Herbicidal ratio of 40% or higher and lower than 70%)	4 (Herbicidal ratio of 70% or higher and lower than 90%)	4 (Herbicidal ratio of 70% or higher and lower than 90%)
CON=C(C)CC1CC(OC(=O)CCC2CCCCC2)=C(c2c(C)cc(C)cc2C)C1=O (centres unmarked) [1-035]	5 (Herbicidal ratio of 90% or more (almost completely withered))	5 (Herbicidal ratio of 90% or more (almost completely withered))	5 (Herbicidal ratio of 90% or more (almost completely withered))	5 (Herbicidal ratio of 90% or more (almost completely withered))	5 (Herbicidal ratio of 90% or more (almost completely withered))	5 (Herbicidal ratio of 90% or more (almost completely withered))	4 (Herbicidal ratio of 70% or higher and lower than 90%)	5 (Herbicidal ratio of 90% or more (almost completely withered))	4 (Herbicidal ratio of 70% or higher and lower than 90%)	5 (Herbicidal ratio of 90% or more (almost completely withered))	5 (Herbicidal ratio of 90% or more (almost completely withered))	–	4 (Herbicidal ratio of 70% or higher and lower than 90%)	4 (Herbicidal ratio of 70% or higher and lower than 90%)	5 (Herbicidal ratio of 90% or more (almost completely withered))	4 (Herbicidal ratio of 70% or higher and lower than 90%)

From US11000033B2, “Ketone or oxime compound, and herbicide” (NISSAN CHEMICAL CORPORATION, priority 2014, dated 2021)
